Laboratory results: US7115718B2, “Haptens, immunogens, antibodies and conjugates to 2-oxo-3-hydroxy-LSD” (Randox :abpratproes :o, oted, priority 2001, dated 2006)

Columns and labels:
[1] = human urine; cited from earlier work
[2] = test system: antibodies generated to immunogen 4; settings: cited from earlier work
[3] = test system: antiserum raised to immunogen A (hapten A-BSA); assay: Competitive ELISA microtiter plate assay for 2-oxo-3-hydroxy-LSD, cross-reactivity with LSD and its metabolites; type: binding, sheep; settings: for % CR, percentage cross-reactivity based on specificity to 2-oxo-3-hydroxy LSD: % CR = IC50 2-oxo / IC50 LSD x 100; for % B/B0: B0 = absorbance at 0 ng/ml; for A450: absorbance at 450 nm, conjugate A (hapten A-HRP)
Method: An aqueous solution of the immunogen prepared in Example 5 was formulated with Freund's Complete Adjuvant (FCA) to form an emulsion consisting of 4 mg/ml inmmunogen in 50% (v/v) FCA. Three sheep were immunized with this emulsion (1° immunisation), 0.25 ml being subcutaneously -injected at each of four sites in the flank of each animal. The next immunisation (Boost 1) contained 2 mg/ml immunogen and subsequent immunizations (boosts 2 to 25) contained 1 mg/ml. All boosts were emulsified in 50% (v/v) Freund's Incomplete Adjuvant (FIA) and administered in the same manner as the 1° immunisation at monthly intervals for 1 year. Blood sampling took place 7 to 14 days after each boost. Each sample was processed to produce antiserum, which was further purified by caprylic acid and ammonium sulfate precipitation to yield an immunoglobulin G (IgG) fraction. The IgG fraction was evaluated by competitive ELISA microtitre plate assay, as described in Example 14 below.
The wells of an enhanced binding 96 well polystyrene ricrotiter plate were coated with the IgG fraction of the antiserum raised to immunogen A (Example 5) of the present invention, diluted in 10 mM Tris, pH8.5 (125 μl/well). The appropriate antibody coating dilution was determined using standard ELISA chequerboard techniques. The plate was incubated for 2 hours at 37° C., washed 4 times with Tris buffered saline containing Tween 20 (TBST) and tapped dry. Standard solutions of 2-oxo-3-hydroxy-LSD were prepared in TBST at 0, 10, 50, 100, 250, 500, 1000 and 2000 ng/ml and 50 μl of each was added to the appropriate wells (FIG. 4). The conjugate (detection reagent) of the present invention was diluted in Tris buffer (pH7.2) containing EDTA, D-mannitol, sucrose, thimerosal and BSA, the appropriate dilution being determined by standard ELISA chequerboard techniques, and 75 μl was added to the appropriate wells (FIG. 4). The plate was incubated at 37° C. for 2 hours. Excess unbound conjugate was removed by washing 6 times over a 10 minute period with TBST.
125 μl of tetramethylbenzidine (TMB) substrate solution was added to each well of the plate, which was then incubated for 15 to 20 minutes in the dark at room temperature. The reaction was terminated by addition of 125 μl 0.2M H2SO4 to each well. The absorbance was then measured at 450 nm using a microtiter plate reader.
Standard solutions of LSD and its metabolites were prepared in TBST at 0, 10.0, 50.0, 100.0, 250.0, 500.0, 1000 and 2000 ng/ml. Employing each series of standards in the present competitive ELISA, calibration curves were generated and these were used to determine the cross-reactivity of the immunoassays with LSD and its metabolites, cross-reactivity being calculated according to the following formula: % CR=IC502-oxo/IC50LSD×100 where % CR is the percentage cross-reactivity, IC502-oxo is the concentration of 2-oxo-3-hydroxy-LSD that causes 50% displacement of signal and IC50LSD is the concentration of LSD or LSD metabolite that causes 50% displacement of signal.

[4] = test system: antibodies of U.S. Pat. No. 6,207,396 B1; settings: antibodies specific to d-LSD; cited from earlier work
[5] = test system: antibodies generated to immunogen 8; settings: cited from earlier work
[6] = test system: antibodies obtained in EP 1 148 339 A2; settings: when compared to 2-oxo-3-hydroxy-LSD; cited from earlier work
[7] = in vivo; cited from earlier work
[8] = in vivo; cited from earlier work; remark: listed apart in the source

Row | Structure (SMILES) | cross-reactivity [2] [%] | specificity / cross-reactivity of the assay, in words [3] | % CR, percentage cross-reactivity based on specificity to 2-oxo-3-hydroxy LSD [3] [%] | % B/B0 ([3]; standard 10 ng/ml) [%] | A450 ([3]; standard 10 ng/ml) | % B/B0 ([3]; standard 50 ng/ml) [%] | A450 ([3]; standard 50 ng/ml) | % B/B0 ([3]; standard 100 ng/ml) [%] | A450 ([3]; standard 100 ng/ml) | % B/B0 ([3]; standard 250 ng/ml) [%] | A450 ([3]; standard 250 ng/ml) | % B/B0 ([3]; standard 500 ng/ml) [%] | A450 ([3]; standard 500 ng/ml) | % B/B0 ([3]; standard 1000 ng/ml) [%] | A450 ([3]; standard 1000 ng/ml) | % B/B0 ([3]; standard 2000 ng/ml) [%] | A450 ([3]; standard 2000 ng/ml) | cross-reactivity [4] [%] | cross-reactivity [5] [%] | cross-reactivity [6] | also measured
1 | CCN(CC)C(=O)[C@@H]1C=C2c3cccc4c3C(O)(C[C@H]2N(C)C1)C(=O)N4 (stereo partly drawn) [2-Oxo-3-Hydroxy-LSD, 2-oxo-3-hydroxy-LSD] | 50 | highly specific | 100 | 78.47 | 1.396 | 59.36 | 1.056 | 50.08 | 0.891 | 37.10 | 0.660 | 28.89 | 0.514 | 21.98 | 0.391 | 17.88 | 0.318 | 1.82 | < 20 |  | average concentration relative to that of LSD [1]: 20 times
2 | CCN(CC)C(=O)[C@@H]1C=C2c3cccc4[nH]cc(c34)C[C@H]2N(C)C1 [LSD, Lysergic acid diethylamide] | 100 | very low levels of cross-reactivity | <5 | 99.28 | 1.792 | 98.45 | 1.777 | 98.34 | 1.775 | 96.40 | 1.740 | 91.58 | 1.653 | 87.09 | 1.572 | 80.50 | 1.453 |  | 100 | 74.9–84.4% | potency as hallucinogen relative to mescaline [7]: 4500–9275 times; potency as hallucinogen relative to psilocybin [7]: 10–150 times; excreted unchanged in urine [8]: less than 1%
3 | CCN(CC)C(=O)[C@@H]1C=C2c3cccc4[nH]cc(c34)C[C@H]2NC1 [Nor LSD, nor-LSD] | 20 | very low levels of cross-reactivity | <5 | 99.0 | 1.772 | 98.7 | 1.767 | 98.5 | 1.763 | 97.1 | 1.738 | 94.2 | 1.686 | 91.5 | 1.638 | 86.7 | 1.552 |  | 40 | 1.8–4.6% | 
4 | CCN(CC)C(=O)[C@H]1C=C2c3cccc4[nH]cc(c34)C[C@H]2N(C)C1 [d-iso-LSD] |  |  |  |  |  |  |  |  |  |  |  |  |  |  |  |  |  | 0.04 |  |  | hallucinogenic activity, in words [7]: inactive
